Laboratory results from the NIST ThermoML archive (doi:10.1021/acs.jced.7b01006).

How the values were obtained:
[1] = for electrical conductivity / viscosity / mass density: 100 kPa, Liquid; for electrical conductivity: Alternating current cell with electrodes; for viscosity: Falling or rolling sphere viscometry; for mass density: Vibrating tube method; for surface tension liquid-gas: Wilhelmy plate
[2] = xn = mol fraction of the nth substance listed; settings: 100 kPa, Liquid, x2 = 0; for viscosity: Falling or rolling sphere viscometry; for mass density: Vibrating tube method

CCC[n+]1ccn(C)c1C.N#C[S-] [1,2-dimethyl-3-propylimidazolium thiocyanate]
[1]
Settings | electrical conductivity [S/m] | mass density [kg/m3] | surface tension liquid-gas [mN/m] | viscosity [mPa·s]
288.15 K | 0.255 | 1099.81 | – | 316.5
293.15 K | 0.361 | 1096.75 | – | 215.8
298.15 K | 0.459 | 1093.67 | 48.8 | 151.9
303.15 K | 0.583 | 1090.61 | – | 110.1
308.15 K | 0.733 | 1087.57 | – | 83.42
313.15 K | 0.905 | 1084.55 | – | 64.78
318.15 K | 1.1 | 1081.54 | – | 50.96
323.15 K | 1.33 | 1078.54 | – | 41.55

CCCCn1cc[n+](C)c1C.N#C[S-] [1-butyl-2,3-dimethylimidazolium thiocyanate]
[1]
Settings | electrical conductivity [S/m] | mass density [kg/m3] | surface tension liquid-gas [mN/m] | viscosity [mPa·s]
288.15 K | 0.106 | 1084.2 | – | 452.7
293.15 K | 0.153 | 1081.11 | – | 311.3
298.15 K | 0.217 | 1078.2 | 44.8 | 218
303.15 K | 0.293 | 1075.18 | – | 157.9
308.15 K | 0.386 | 1072.16 | – | 118.9
313.15 K | 0.496 | 1069.15 | – | 90.46
318.15 K | 0.627 | 1066.16 | – | 72.04
323.15 K | 0.774 | 1063.2 | – | 57.11

CC#N [acetonitrile]
[1]
Settings | mass density [kg/m3] | viscosity [mPa·s]
288.15 K | 787.58 | 0.376
293.15 K | 781.89 | 0.357
298.15 K | 776.52 | 0.339
303.15 K | 771.12 | 0.324
308.15 K | 765.83 | 0.309
313.15 K | 760.36 | 0.295
318.15 K | 755.14 | 0.283
323.15 K | 749.44 | 0.272

CC#N [acetonitrile] + CCCCn1cc[n+](C)c1C.N#C[S-]
[2]
Settings | mass density [kg/m3] | viscosity [mPa·s]
288.15 K | 787.58 | 0.376
293.15 K | 781.89 | 0.357
298.15 K | 776.52 | 0.339
303.15 K | 771.12 | 0.324
308.15 K | 765.83 | 0.309
313.15 K | 760.36 | 0.295
318.15 K | 755.14 | 0.283
323.15 K | 749.44 | 0.272

CC#N [acetonitrile] + CCC[n+]1ccn(C)c1C.N#C[S-]
[2]
Settings | mass density [kg/m3] | viscosity [mPa·s]
288.15 K | 787.58 | 0.376
293.15 K | 781.89 | 0.357
298.15 K | 776.52 | 0.339
303.15 K | 771.12 | 0.324
308.15 K | 765.83 | 0.309
313.15 K | 760.36 | 0.295
318.15 K | 755.14 | 0.283
323.15 K | 749.44 | 0.272
